The source of these data is publication PMC10353189, “Hybridization of the effective pharmacophores for treatment of epilepsy: design, synthesis, in vivo anticonvulsant activity, and in silico studies of phenoxyphenyl-1,3,4-oxadiazole-thio-N-phenylacetamid hybrids” (BMC Chemistry, 2023).

Like-named read-outs stand apart in the source and are kept apart here.

For test [1], the system named is MES-induced seizure in mice. The experiment in a line: Maximal electroshock (MES) induced seizure test. In kind it is in vivo, Male NMRI mice. The settings on record: for responders at 1 mg/kg / responders at 2 mg/kg / responders at 5 mg/kg / responders at 10 mg/kg / responders at 20 mg/kg / responders at 50 mg/kg / responders at 100 mg/kg: Mus musculus; for responders at 1 mg/kg: dose 1 mg/kg ip; for responders at 5 mg/kg: dose 5 mg/kg ip; for responders at 10 mg/kg: dose 10 mg/kg ip; for responders at 20 mg/kg: dose 20 mg/kg ip; for responders at 50 mg/kg: dose 50 mg/kg ip; for responders at 100 mg/kg: dose 100 mg/kg ip. (Protection in the maximal electroshock model is a classic sign of anticonvulsant action.)

In test [2] the test system is PTZ-induced lethal convulsion in mice. The experiment in a line: Pentylenetetrazole (PTZ) induced seizure test. The format is in vivo, Male NMRI mice. The settings on record: Mus musculus; for responders at 2 mg/kg: dose 2 mg/kg ip; for responders at 5 mg/kg: dose 5 mg/kg ip; for responders at 10 mg/kg: dose 10 mg/kg ip; for responders at 50 mg/kg: dose 50 mg/kg ip.
The mark [3] stands for this setting: MES 50 mA, 60 Hz, 0.2 s, read-out: MES Number of animals protected / Number of tested animals (converted).
The mark [4] stands for this setting: dose 2 mg/kg ip, MES 50 mA, 60 Hz, 0.2 s, read-out: MES Number of animals protected / Number of tested animals (converted).
The mark [5] stands for this setting: dose 2 mg/kg ip, read-out: MES %Protection.
The mark [6] stands for this setting: 30 min before PTZ 100 mg/kg ip, read-out: PTZ Number of animals protected / Number of tested animals.
Where [7] appears, read: PTZ 100 mg/kg ip, read-out: PTZ %Protection.
The mark [8] stands for this setting: 30 min before PTZ 100 mg/kg ip, read-out: PTZ Number of animals protected / Number of tested animals (converted).

Consider `O=C(CSc1nnc(-c2ccccc2Oc2ccccc2)o1)Nc1ccc([N+](=O)[O-])cc1` [Compound 8L, N-(4-nitrophenyl)-2-((5-(2-phenoxyphenyl)-1,3,4-oxadiazol-2-yl)thio)acetamide], for which the responders at 1 mg/kg in test [1] (setting [3]) and in test [1] (read-out: MES %Protection) was 25% throughout. Moreover, the responders at 2 mg/kg in test [1] (setting [4]) is 25%; in test [1] (setting [5]), 25%; in test [2] (setting [6]), 0%; in test [2] (setting [7]) it was 0%. Further, the responders at 5 mg/kg in test [1] (setting [3]) was 75%; in test [1] (read-out: MES %Protection) it was 75%; in test [2] (setting [8]), 25%; in test [2] (setting [7]), 25%. The responders at 10 mg/kg in test [1] (setting [3]) was 50%; in test [1] (read-out: MES %Protection), 50%; in test [2] (setting [8]) it was 0%; in test [2] (setting [7]), 0%.
For `O=C(CSc1nnc(-c2ccccc2Oc2ccccc2)o1)Nc1ccccc1` [Compound 8a, 2-((5-(2-phenoxyphenyl)-1,3,4-oxadiazol-2-yl)thio)-N -phenylacetamide], the responders at 1 mg/kg in test [1] (setting [3]) and in test [1] (read-out: MES %Protection) was 62.5% throughout. Moreover, the responders at 2 mg/kg in test [1] (setting [4]) and in test [1] (setting [5]) was 50% throughout. Moreover, the responders at 5 mg/kg was 50% in test [1] (setting [3]), 50% in test [1] (read-out: MES %Protection), 0% in test [2] (setting [8]) and 0% in test [2] (setting [7]). In addition, the responders at 10 mg/kg in test [1] (setting [3]) and in test [1] (read-out: MES %Protection) was 50% throughout. The responders at 20 mg/kg in test [1] (setting [3]) and in test [1] (read-out: MES %Protection) was 50% throughout.
As for `Cc1ccc(NC(=O)CSc2nnc(-c3ccccc3Oc3ccccc3)o2)cc1` [Compound 8b, 2-((5-(2-phenoxyphenyl)-1,3,4-oxadiazol-2-yl)thio)-N -(p-tolyl)acetamide], the responders at 1 mg/kg in test [1] (setting [3]) and in test [1] (read-out: MES %Protection) was 0% each time. Moreover, the responders at 10 mg/kg in test [1] (setting [3]) and in test [1] (read-out: MES %Protection) was 25% throughout. The responders at 50 mg/kg in test [1] (MES 50 mA, 60 Hz, 0.2 s, read-out: MES Number of animals protected / Number of tested animals) stood at 40%; in test [1] (read-out: MES %Protection), 40%; in test [2] (setting [6]), 0%; in test [2] (setting [7]), 0%. For the same compound, the responders at 100 mg/kg in test [1] (setting [3]) and in test [1] (read-out: MES %Protection) was 75% throughout.
With `COc1ccc(NC(=O)CSc2nnc(-c3ccccc3Oc3ccccc3)o2)cc1` [Compound 8c, N-(4-methoxyphenyl)-2-((5-(2-phenoxyphenyl)-1,3,4-oxadiazol-2-yl)thio)acetamide], the responders at 1 mg/kg in test [1] (setting [3]) and in test [1] (read-out: MES %Protection) was 0% in each case. Also, the responders at 2 mg/kg is 25% in test [1] (setting [4]), 25% in test [1] (setting [5]), 0% in test [2] (setting [6]) and 0% in test [2] (setting [7]). Also, the responders at 5 mg/kg in test [1] (setting [3]) and in test [1] (read-out: MES %Protection) was 25% in each case. Besides, the responders at 10 mg/kg in test [1] (setting [3]) and in test [1] (read-out: MES %Protection) was 25% each time. Besides, the responders at 20 mg/kg in test [1] (setting [3]) and in test [1] (read-out: MES %Protection) was 75% in each case.
`O=C(CSc1nnc(-c2ccccc2Oc2ccccc2)o1)Nc1ccc(F)cc1` [Compound 8d, N-(4-fluorophenyl)-2-((5-(2-phenoxyphenyl)-1,3,4-oxadiazol-2-yl)thio)acetamide]: the responders at 1 mg/kg in test [1] (setting [3]) and in test [1] (read-out: MES %Protection) was 25% throughout. Also, the responders at 2 mg/kg in test [1] (setting [4]) and in test [1] (setting [5]) was 50% each time. The responders at 5 mg/kg in test [1] (setting [3]) is 50%; in test [1] (read-out: MES %Protection), 50%; in test [2] (setting [8]), 0%; in test [2] (setting [7]) it was 0%. In addition, the responders at 10 mg/kg in test [1] (setting [3]) and in test [1] (read-out: MES %Protection) was 50% throughout. Moreover, the responders at 20 mg/kg in test [1] (setting [3]) and in test [1] (read-out: MES %Protection) was 25% throughout.
Turning to `O=C(CSc1nnc(-c2ccccc2Oc2ccccc2)o1)Nc1ccc(F)cc1F` [Compound 8e, N-(2,4-difluorophenyl)-2-((5-(2-phenoxyphenyl)-1,3,4-oxadiazol-2-yl)thio)acetamide], the responders at 1 mg/kg in test [1] (setting [3]) and in test [1] (read-out: MES %Protection) was 25% in each case. The responders at 5 mg/kg in test [1] (setting [3]) is 25%; in test [1] (read-out: MES %Protection) it was 25%; in test [2] (setting [8]), 0%; in test [2] (setting [7]) it was 0%. Further, the responders at 10 mg/kg in test [1] (setting [3]) and in test [1] (read-out: MES %Protection) was 25% each time.
Take `O=C(CSc1nnc(-c2ccccc2Oc2ccccc2)o1)Nc1ccccc1Cl` [Compound 8f, N-(2-chlorophenyl)-2-((5-(2-phenoxyphenyl)-1,3,4-oxadiazol-2-yl)thio)acetamide]: the responders at 5 mg/kg in test [1] (setting [3]), in test [1] (read-out: MES %Protection), in test [2] (setting [8]) and in test [2] (setting [7]) was 0% each time. Besides, the responders at 10 mg/kg in test [1] (setting [3]) and in test [1] (read-out: MES %Protection) was 25% in each case. The responders at 20 mg/kg in test [1] (setting [3]) and in test [1] (read-out: MES %Protection) was 75% each time.
As to `O=C(CSc1nnc(-c2ccccc2Oc2ccccc2)o1)Nc1cccc(Cl)c1` [Compound 8g, N-(3-chlorophenyl)-2-((5-(2-phenoxyphenyl)-1,3,4-oxadiazol-2-yl)thio)acetamide], the responders at 1 mg/kg in test [1] (setting [3]) and in test [1] (read-out: MES %Protection) was 62.5% each time. Also, the responders at 2 mg/kg in test [1] (setting [4]) and in test [1] (setting [5]) was 25% throughout. The responders at 5 mg/kg is 50% in test [1] (setting [3]), 50% in test [1] (read-out: MES %Protection), 0% in test [2] (setting [8]) and 0% in test [2] (setting [7]). Besides, the responders at 10 mg/kg in test [1] (setting [3]) and in test [1] (read-out: MES %Protection) was 75% in each case. In addition, the responders at 20 mg/kg in test [1] (setting [3]) and in test [1] (read-out: MES %Protection) was 62.5% each time.
On to `O=C(CSc1nnc(-c2ccccc2Oc2ccccc2)o1)Nc1cc(Cl)cc(Cl)c1` [Compound 8h, N-(3,5-dichlorophenyl)-2-((5-(2-phenoxyphenyl)-1,3,4-oxadiazol-2-yl)thio)acetamide], for which the responders at 1 mg/kg in test [1] (setting [3]) and in test [1] (read-out: MES %Protection) was 0% in each case. In addition, the responders at 2 mg/kg in test [1] (setting [4]) and in test [1] (setting [5]) was 25% each time. Also, the responders at 5 mg/kg was 25% in test [1] (setting [3]), 25% in test [1] (read-out: MES %Protection), 0% in test [2] (setting [8]) and 0% in test [2] (setting [7]). Besides, the responders at 10 mg/kg in test [1] (setting [3]) and in test [1] (read-out: MES %Protection) was 25% throughout. Further, the responders at 20 mg/kg in test [1] (setting [3]) and in test [1] (read-out: MES %Protection) was 50% each time.
As for `O=C(CSc1nnc(-c2ccccc2Oc2ccccc2)o1)Nc1cccc(Br)c1` [Compound 8i, N-(3-bromophenyl)-2-((5-(2-phenoxyphenyl)-1,3,4-oxadiazol-2-yl)thio)acetamide], the responders at 1 mg/kg in test [1] (setting [3]) and in test [1] (read-out: MES %Protection) was 0% each time. Further, the responders at 5 mg/kg was 50% in test [1] (setting [3]), 50% in test [1] (read-out: MES %Protection), 0% in test [2] (setting [8]) and 0% in test [2] (setting [7]). Also, the responders at 10 mg/kg in test [1] (setting [3]) and in test [1] (read-out: MES %Protection) was 25% throughout. For the same compound, the responders at 20 mg/kg in test [1] (setting [3]) and in test [1] (read-out: MES %Protection) was 50% in each case.
Regarding `O=C(CSc1nnc(-c2ccccc2Oc2ccccc2)o1)Nc1ccc(Br)cc1` [Compound 8j, N-(4-bromophenyl)-2-((5-(2-phenoxyphenyl)-1,3,4-oxadiazol-2-yl)thio)acetamide], the responders at 1 mg/kg in test [1] (setting [3]) and in test [1] (read-out: MES %Protection) was 25% throughout. Besides, the responders at 5 mg/kg was 50% in test [1] (setting [3]), 50% in test [1] (read-out: MES %Protection), 0% in test [2] (setting [8]) and 0% in test [2] (setting [7]). Also, the responders at 10 mg/kg in test [1] (setting [3]) was 50%; in test [1] (read-out: MES %Protection), 50%; in test [2] (setting [8]) it was 25%; in test [2] (setting [7]), 25%.
For the compound `CN1C(=O)CN=C(c2ccccc2)c2cc(Cl)ccc21` [Diazepam, reference compound], in test [1] (dose 2 mg/kg ip, with flumazenil 1 mg/kg ip 15 min before seizure induction), the “MES Number of animals protected / Number of tested animals” value was 0/6.
